The target in one assay is Src enzyme (Homo sapiens (Human), UniProt P12931). The assay can be described thus: Src enzyme activity (IMAP fluorescence polarization assay). Particulars: read-out: EC50 Src activity values; IMAP, 60 min pre-incubation, 4 μM ATP.
Another assay has as its target FynT enzyme (Homo sapiens (Human), UniProt P06241). The assay can be described thus: FynT enzyme activity (IMAP fluorescence polarization assay). Particulars: 60 min pre-incubation, 0.2 μM ATP. In kind it is biochemical. A digest of the protocol:
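Human FynT pre-incubated with compounds 60 min at room temperature, then reacted 2 h at room temperature with fluorescein-labelled p34cdc2 peptide (100 nM final). Stopped with IMAP binding solution; fluorescence polarization read after 60 min. Activity as % of ±ATP control difference; EC50 by curve fitting.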
A general note: Polarisation of emitted light reports the rotation of a fluorescent probe.

The target in the next assay is Lck enzyme (Homo sapiens (Human), UniProt P06239). Kind of assay: Lck enzyme activity (IMAP fluorescence polarization assay).
The target in another assay is Lyn enzyme (Homo sapiens (Human), UniProt P07948). The assay can be described thus: Lyn enzyme activity (IMAP fluorescence polarization assay). To be noted: read-out: EC50 Lyn activity values, 60 min pre-incubation, 2 μM ATP, bin bound in μM.
Another assay addresses Btk enzyme (His-Btk) (Homo sapiens (Human), UniProt Q06187). The assay can be described thus: Btk enzyme activity (IMAP fluorescence polarization assay).
[1] abbreviates: read-out: EC50 Lck activity values, IMAP, 60 min pre-incubation, 6 μM ATP, bin bound in μM.
Setting [2] is: read-out: EC50 Btk activity values, IMAP, 60 min pre-incubation, 5 μM ATP, bin bound in nM.
Setting [3] is: IMAP, 60 min pre-incubation, 5 μM ATP, bin bound in nM.

This note sets out measurements from patent US9758524B2, “4-imidazopyridazin-1-yl-benzamides as Btk inhibitors” (Merck Sharp & Dohme B.V., priority 2011, dated 2017).

Like-named read-outs stand apart in the source and are kept apart here.

Lck enzyme, sequence (P06239 whole entry): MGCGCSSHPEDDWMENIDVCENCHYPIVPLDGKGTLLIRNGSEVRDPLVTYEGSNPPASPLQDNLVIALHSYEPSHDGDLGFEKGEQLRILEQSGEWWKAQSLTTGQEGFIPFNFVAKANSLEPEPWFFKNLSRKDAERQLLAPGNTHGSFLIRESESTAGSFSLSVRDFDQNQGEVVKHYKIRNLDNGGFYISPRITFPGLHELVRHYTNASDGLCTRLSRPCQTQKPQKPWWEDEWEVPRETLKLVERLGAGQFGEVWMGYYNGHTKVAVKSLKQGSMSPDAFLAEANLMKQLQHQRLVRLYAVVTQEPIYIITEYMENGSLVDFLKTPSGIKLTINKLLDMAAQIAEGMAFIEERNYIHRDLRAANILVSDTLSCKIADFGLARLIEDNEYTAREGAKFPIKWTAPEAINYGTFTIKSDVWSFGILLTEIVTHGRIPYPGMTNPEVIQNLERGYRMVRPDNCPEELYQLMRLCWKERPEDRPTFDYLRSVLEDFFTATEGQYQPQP
Src enzyme, sequence (P12931 whole entry, looked up): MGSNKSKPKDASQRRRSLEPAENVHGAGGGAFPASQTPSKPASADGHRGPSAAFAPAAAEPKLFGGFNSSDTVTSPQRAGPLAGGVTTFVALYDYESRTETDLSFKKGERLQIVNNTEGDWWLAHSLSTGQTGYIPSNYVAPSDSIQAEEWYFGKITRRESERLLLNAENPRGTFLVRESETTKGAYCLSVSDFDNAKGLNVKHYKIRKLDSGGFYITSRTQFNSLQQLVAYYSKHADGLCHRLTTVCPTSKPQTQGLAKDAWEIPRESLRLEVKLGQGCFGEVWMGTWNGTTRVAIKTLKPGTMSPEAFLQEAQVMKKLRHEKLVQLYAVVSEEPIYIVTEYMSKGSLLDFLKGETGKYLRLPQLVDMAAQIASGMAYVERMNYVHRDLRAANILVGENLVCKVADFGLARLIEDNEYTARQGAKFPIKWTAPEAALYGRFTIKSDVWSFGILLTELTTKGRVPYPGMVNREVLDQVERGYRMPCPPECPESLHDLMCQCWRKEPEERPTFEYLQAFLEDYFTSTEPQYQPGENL
FynT enzyme, sequence (P06241 other isoform, or with tags, fused parts or gaps): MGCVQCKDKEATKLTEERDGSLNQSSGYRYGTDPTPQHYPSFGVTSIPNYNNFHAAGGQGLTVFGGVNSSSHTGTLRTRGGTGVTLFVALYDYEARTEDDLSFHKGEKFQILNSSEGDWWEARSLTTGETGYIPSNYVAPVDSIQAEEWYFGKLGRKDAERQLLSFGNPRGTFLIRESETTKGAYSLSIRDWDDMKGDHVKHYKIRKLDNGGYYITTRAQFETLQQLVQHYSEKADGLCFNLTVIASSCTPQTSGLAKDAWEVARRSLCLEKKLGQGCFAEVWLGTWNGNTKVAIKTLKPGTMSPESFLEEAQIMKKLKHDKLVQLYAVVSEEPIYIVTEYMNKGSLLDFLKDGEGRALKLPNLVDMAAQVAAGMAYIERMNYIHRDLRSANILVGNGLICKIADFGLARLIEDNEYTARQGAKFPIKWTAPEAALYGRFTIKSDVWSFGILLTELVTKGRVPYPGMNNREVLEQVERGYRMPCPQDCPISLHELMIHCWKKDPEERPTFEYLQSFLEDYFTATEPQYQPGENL
Lyn enzyme, sequence (P07948 whole entry): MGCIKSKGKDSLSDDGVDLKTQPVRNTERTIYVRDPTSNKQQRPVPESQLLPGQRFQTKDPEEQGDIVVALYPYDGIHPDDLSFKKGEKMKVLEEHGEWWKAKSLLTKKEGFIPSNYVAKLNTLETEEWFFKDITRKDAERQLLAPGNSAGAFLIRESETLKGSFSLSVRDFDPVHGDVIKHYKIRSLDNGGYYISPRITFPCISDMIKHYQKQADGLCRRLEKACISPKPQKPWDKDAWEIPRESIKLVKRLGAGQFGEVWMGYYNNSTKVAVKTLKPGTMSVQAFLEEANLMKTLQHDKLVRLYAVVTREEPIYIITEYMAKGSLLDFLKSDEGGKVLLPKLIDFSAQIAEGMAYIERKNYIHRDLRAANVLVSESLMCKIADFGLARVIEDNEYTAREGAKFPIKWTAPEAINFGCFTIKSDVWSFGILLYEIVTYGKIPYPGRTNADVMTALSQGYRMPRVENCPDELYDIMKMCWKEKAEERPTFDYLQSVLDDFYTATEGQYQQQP
Btk enzyme (His-Btk), sequence (Q06187 whole entry): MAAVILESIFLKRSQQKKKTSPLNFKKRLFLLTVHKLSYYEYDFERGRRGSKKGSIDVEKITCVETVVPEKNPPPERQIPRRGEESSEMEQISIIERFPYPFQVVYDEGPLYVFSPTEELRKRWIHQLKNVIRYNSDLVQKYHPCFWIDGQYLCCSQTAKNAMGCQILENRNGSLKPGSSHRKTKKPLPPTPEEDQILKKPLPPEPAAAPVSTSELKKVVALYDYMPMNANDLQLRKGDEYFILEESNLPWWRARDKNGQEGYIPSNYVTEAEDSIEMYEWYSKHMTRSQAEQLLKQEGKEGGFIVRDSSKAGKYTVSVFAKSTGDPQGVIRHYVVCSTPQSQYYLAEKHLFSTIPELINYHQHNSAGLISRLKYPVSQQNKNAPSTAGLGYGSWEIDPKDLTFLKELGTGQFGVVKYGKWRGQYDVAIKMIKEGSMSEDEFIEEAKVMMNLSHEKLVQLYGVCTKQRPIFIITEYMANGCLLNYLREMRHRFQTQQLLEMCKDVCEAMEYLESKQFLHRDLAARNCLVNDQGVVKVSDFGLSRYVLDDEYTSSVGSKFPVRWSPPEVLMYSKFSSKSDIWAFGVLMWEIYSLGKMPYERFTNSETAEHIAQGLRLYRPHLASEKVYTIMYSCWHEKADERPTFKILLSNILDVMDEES
Method for Btk enzyme (His-Btk): Inhibition of kinase activity can be measured using the Immobilized Metal Assay for Phosphochemicals (IMAP) assay. IMAP is a homogeneous fluorescence polarization (FP) assay based on affinity capture of phosphorylated peptide substrates. IMAP uses fluorescein-labeled peptide substrates that, upon phosphorylation by a protein kinase, bind to so-called IMAP nanoparticles, which are derivatized with trivalent metal complexes.
Final peptide substrate concentration in assay is 50 nM.

For orientation: EC50 means the concentration giving half of the maximal effect. Take `CCCc1ccnc(NC(=O)c2ccc(-c3nc([C@@H]4CCCCN4C(=O)c4ccnc(Cl)n4)n4ccnc(N)c34)cc2)c1` [Example 107, (S)-4-(8-amino-3-(1-(2-chloropyrimidine-4-carbonyl)piperidin-2-yl)imidazo[1,5-a]pyrazin-1-yl)-N-(4-propylpyridin-2-yl)benzamide]: the EC50 was at least 1000 nM at Src enzyme; at least 1000 nM on FynT enzyme; at least 1 µM on Lck enzyme (setting [1]); at least 1 µM on Lyn enzyme; below 10 nM on Btk enzyme (His-Btk) (setting [2]).

Regarding `CC#CC(=O)N1CCC[C@H]1c1nc(-c2ccc(C(=O)Nc3cc(C#N)ccn3)cc2)c2c(N)nccn12` [Example 130, (S)-4-(8-amino-3-(1-but-2-ynoylpyrrolidin-2-yl)imidazo[1,5-a]pyrazin-1-yl)-N-(4-cyanopyridin-2-yl)benzamide], the concentration for a half-maximal effect (EC50) is at least 1000 nM at Src enzyme; at least 1000 nM on FynT enzyme; at least 1 µM at Lck enzyme (setting [1]); at least 1 µM on Lyn enzyme; below 10 nM on Btk enzyme (His-Btk) (setting [2]).

Turning to `C=CC(=O)N1CCCC[C@H]1c1nc(-c2ccc(C(=O)Nc3cc(CCC)ccn3)cc2)c2c(N)nccn12` [Example 61, (S)-4-(3-(1-acryloylpiperidin-2-yl)-8-aminoimidazo[1,5-a]pyrazin-1-yl)-N-(4-propylpyridin-2-yl)benzamide], the EC50 at Src enzyme was at least 1000 nM; at FynT enzyme, at least 1000 nM; on Lck enzyme (setting [1]) it was at least 1 µM; on Lyn enzyme it was at least 1 µM; at Btk enzyme (His-Btk) (setting [2]), below 10 nM.

For the molecule `CC#CC(=O)N1CCCC[C@H]1c1nc(-c2ccc(C(=O)Nc3ccon3)cc2)c2c(N)nccn12` [Example 24, (S)-4-(8-Amino-3-(1-but-2-ynoylpiperidin-2-yl)imidazo[1,5-a]pyrazin-1-yl)-N-(isoxazol-3-yl)benzamide], the EC50 on Src enzyme is at least 1000 nM; at FynT enzyme, at least 1000 nM; at Lck enzyme (setting [1]), at least 1 µM; on Lyn enzyme, at least 1 µM; on Btk enzyme (His-Btk), 10 to 100 nM. In addition, the “EC50 Btk activity values” on Btk enzyme (His-Btk) (setting [3]) is listed as below 100 nM.

For the molecule `COC/C=C/C(=O)N1CCC[C@H]1c1nc(-c2ccc(C(=O)Nc3cc(OC)ccn3)cc2)c2c(N)nccn12` [Example 51, (S,E)-4-(8-amino-3-(1-(4-methoxybut-2-enoyl)pyrrolidin-2-yl)imidazo[1,5-a]pyrazin-1-yl)-N-(4-methoxypyridin-2-yl)benzamide], the EC50 on Src enzyme is at least 1000 nM; on FynT enzyme, at least 1000 nM; on Lck enzyme (setting [1]), at least 1 µM; at Lyn enzyme, at least 1 µM; at Btk enzyme (His-Btk), 10 to 100 nM. The “EC50 Btk activity values” on Btk enzyme (His-Btk) (setting [3]) was below 100 nM.

As to `CC#CC(=O)N[C@@H](C)c1nc(-c2ccc(C(=O)Nc3ccccn3)cc2)c2c(N)nccn12` [Example 30, (S)-4-(8-Amino-3-(1-but-2-ynamidoethyl)imidazo[1,5-a]pyrazin-1-yl)-N-(pyridin-2-yl)benzamide], the EC50 at Src enzyme was at least 1000 nM; at FynT enzyme, at least 1000 nM; at Lck enzyme (setting [1]), at least 1 µM; on Lyn enzyme, at least 1 µM; on Btk enzyme (His-Btk) (setting [2]), below 10 nM.

Take `CN(C)C/C=C/C(=O)N1CCC[C@H]1c1nc(-c2ccc(C(=O)Nc3cc(F)ccn3)cc2)c2c(N)nccn12` [Example 7, (S,E)-4-(8-Amino-3-(1-(4-(dimethylamino)but-2-enoyl)pyrrolidin-2-yl)imidazo[1,5-a]pyrazin-1-yl)-N-(4-fluoropyridin-2-yl)benzamide]: the EC50 is at least 1000 nM on Src enzyme; at least 1000 nM at FynT enzyme; at least 1 µM at Lck enzyme (setting [1]); at least 1 µM on Lyn enzyme; 10 to 100 nM at Btk enzyme (His-Btk). Further, the “EC50 Btk activity values” at Btk enzyme (His-Btk) (setting [3]) is below 100 nM.

On to `CC#CC(=O)N1CCCC[C@H]1c1nc(-c2ccc(C(=O)Nc3cc(CCC)ccn3)cc2)c2c(N)nccn12` [Example 64, (S)-4-(8-amino-3-(1-but-2-ynoylpiperidin-2-yl)imidazo[1,5-a]pyrazin-1-yl)-N-(4-propylpyridin-2-yl)benzamide], for which the concentration for a half-maximal effect (EC50) at Src enzyme was at least 1000 nM; on FynT enzyme, at least 1000 nM; on Lck enzyme it was 0.1 to 1 µM; on Lyn enzyme it was at least 1 µM; at Btk enzyme (His-Btk) (setting [2]), below 10 nM. In addition, the “EC50 Lck activity values” at Lck enzyme (IMAP, 60 min pre-incubation, 6 μM ATP, bin bound in μM) is below 1 µM.

Consider `CC#CC(=O)N1CCCC[C@H]1c1nc(-c2ccc(C(=O)Nc3cc(F)ccn3)cc2)c2c(N)nccn12` [Example 44, (S)-4-(8-amino-3-(1-but-2-ynoylpiperidin-2-yl)imidazo[1,5-a]pyrazin-1-yl)-N-(4-fluoropyridin-2-yl)benzamide], for which the EC50 at Src enzyme was at least 1000 nM; at FynT enzyme, at least 1000 nM; at Lck enzyme (setting [1]), at least 1 µM; on Lyn enzyme, at least 1 µM; on Btk enzyme (His-Btk) (setting [2]) it was below 10 nM.
